Measured values as given in ChEMBL document CHEMBL1124651, “Cytostatic trans-platinum(II) complexes” (J Med Chem, 1989).
Several values for one entry are separate records, joined by “and”; a condition that tells them apart may be missing. Equal entries are not always repeated.

Key:
Mus musculus = assay: Maximum dose at which all tested BDF1 mice survived after 30 days of intraperitoneal dosage; assay type: functional
P388 = assay: Anti tumor activity expressed as median survival time of treated BDF1 mice bearing P388 leukemia cells versus untreated controls; assay type: functional, cell-based; conditions: Mus musculus
L1210 = assay: Compound was evaluated for its inhibitory dose against L1210 leukemia cell line; assay type: functional, cell-based; conditions: Mus musculus

| Substance | LD0 (Mus musculus) | T/C (P388) | ID50 (L1210) |
| --- | --- | --- | --- |
| CISPLATIN | 30 µM/kg | 205% | 2.3 µM |
| Cis-[PtCl2(gamma-pic)2] complex | – | 105% and 119% | – |
| TRANSPLATIN | 167 µM/kg | 116% | 67 µM |
